Measured values as given in ChEMBL document CHEMBL1201862, “PubChem BioAssay data set” (2004).
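Interpolation was linear, between the two tested concentrations surrounding the appropriate level; five concentrations were tested over 48 hours in 96-well plates. GI50: concentration for 50% inhibition of growth.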 Calls of active or inactive are those of the source. Cut-off read from the data, not from the text of the source: active = GI50 up to about 1.1 µM and inactive = higher.

Assays:
Assay in all cases: growth of human tumour cells (NCI), 48 h
OVCAR-3 = tested on: OVCAR-3
COLO 205 = tested on: COLO 205
NCI-H522 = tested on: NCI-H522
SF-539 = tested on: SF-539
A549 = tested on: A549
LOX IMVI = tested on: LOX IMVI
SN12C = tested on: SN12C
NCI-H23 = tested on: NCI-H23
OVCAR-4 = tested on: OVCAR-4
RXF 393 = tested on: RXF 393
SK-MEL-2 = tested on: SK-MEL-2
OVCAR-8 = tested on: OVCAR-8
A498 = tested on: A498
CCRF-CEM = tested on: CCRF-CEM
RPMI-8226 = tested on: RPMI-8226
UACC-257 = tested on: UACC-257
SW-620 = tested on: SW-620
NCI-H226 = tested on: NCI-H226
MDA-MB-435 = tested on: MDA-MB-435
HL-60 = tested on: HL-60

| Compound | GI50 (OVCAR-3) | GI50 (COLO 205) | GI50 (NCI-H522) | GI50 (SF-539) | GI50 (A549) | GI50 (LOX IMVI) | GI50 (SN12C) | GI50 (NCI-H23) | GI50 (OVCAR-4) | GI50 (RXF 393) | GI50 (SK-MEL-2) | GI50 (OVCAR-8) | GI50 (A498) | GI50 (CCRF-CEM) | GI50 (RPMI-8226) | GI50 (UACC-257) | GI50 (SW-620) | GI50 (NCI-H226) | GI50 (MDA-MB-435) | GI50 (HL-60) |
| --- | --- | --- | --- | --- | --- | --- | --- | --- | --- | --- | --- | --- | --- | --- | --- | --- | --- | --- | --- | --- |
| O=C(O)CC(Cc1ccccc1)C(=O)O (stereo not given) | > 100 µM (inactive) | > 100 µM (inactive) | > 100 µM (inactive) | > 100 µM (inactive) | > 100 µM (inactive) | > 100 µM (inactive) | 37.2 µM (inactive) | > 100 µM (inactive) | > 100 µM (inactive) | > 100 µM (inactive) | > 100 µM (inactive) | > 100 µM (inactive) | > 100 µM (inactive) | > 100 µM (inactive) | > 100 µM (inactive) | > 100 µM (inactive) | > 100 µM (inactive) | 50.4 µM (inactive) | > 100 µM (inactive) |  |
| Oc1nnc(-c2ccc(F)cc2)cc1-c1ccccc1 | 23.4 µM (inactive) | > 100 µM (inactive) |  | 35.9 µM (inactive) | > 100 µM (inactive) | > 100 µM (inactive) | > 100 µM (inactive) | > 100 µM (inactive) | 38 µM (inactive) | 46.1 µM (inactive) | 80.7 µM (inactive) | 50.4 µM (inactive) | 64.4 µM (inactive) | > 100 µM (inactive) | 75 µM (inactive) | > 100 µM (inactive) | > 100 µM (inactive) | > 100 µM (inactive) | > 100 µM (inactive) | > 100 µM (inactive) |
| COc1ccc(CC(C)NCC(O)c2ccc(O)c(NC=O)c2)cc1 (stereo not given) | > 100 µM (inactive) | > 100 µM (inactive) | > 100 µM (inactive) | > 100 µM (inactive) | > 100 µM (inactive) | > 100 µM (inactive) | 20.1 µM (inactive) | > 100 µM (inactive) | > 100 µM (inactive) | > 100 µM (inactive) | > 100 µM (inactive) | > 100 µM (inactive) | > 100 µM (inactive) | > 100 µM (inactive) | > 100 µM (inactive) | > 100 µM (inactive) | > 100 µM (inactive) | > 100 µM (inactive) | > 100 µM (inactive) |  |
| CCOC(=O)CC1Nc2ccccc2C12CCc1c([nH]c3ccccc13)C2C(=O)OCC (stereo not given) | 22.2 µM (inactive) | 5.12 µM (inactive) | 7.13 µM (inactive) | 88.1 µM (inactive) | 14.3 µM (inactive) | 26.5 µM (inactive) | 24.7 µM (inactive) | 51.2 µM (inactive) | 12.3 µM (inactive) | 5.79 µM (inactive) | 27 µM (inactive) | > 100 µM (inactive) | 9.42 µM (inactive) | 0.359 µM (active) | 2.77 µM (inactive) | 38 µM (inactive) | 6.87 µM (inactive) |  | 4.79 µM (inactive) | 14.7 µM (inactive) |
| COc1ccc(C2=C(N)c3c(OC)cccc3C2=O)cc1 | > 100 µM (inactive) | > 100 µM (inactive) |  | 15 µM (inactive) |  | 99.5 µM (inactive) | > 100 µM (inactive) | > 100 µM (inactive) | > 100 µM (inactive) | 9.66 µM (inactive) | > 100 µM (inactive) | 62.2 µM (inactive) | > 100 µM (inactive) | > 100 µM (inactive) | > 100 µM (inactive) | > 10 µM (inactive) | > 100 µM (inactive) | > 100 µM (inactive) | > 100 µM (inactive) | > 100 µM (inactive) |
| CCOC(=O)c1nc2ccccc2nc1Oc1cc(OC)c(OC)c(OC)c1 | > 100 µM (inactive) | > 100 µM (inactive) | 83.4 µM (inactive) | 39.4 µM (inactive) | > 100 µM (inactive) | > 100 µM (inactive) | > 100 µM (inactive) | 87.3 µM (inactive) | > 100 µM (inactive) |  | 90.2 µM (inactive) | > 100 µM (inactive) | > 100 µM (inactive) | > 100 µM (inactive) | > 100 µM (inactive) | > 100 µM (inactive) | > 100 µM (inactive) |  | > 100 µM (inactive) | > 100 µM (inactive) |
| CC(=O)N1N=C(c2c(O)ccc3ccccc23)CC1C(=O)c1ccco1 (stereo not given) | 17.7 µM (inactive) | 24.7 µM (inactive) | 28.2 µM (inactive) | 21.1 µM (inactive) | 28.2 µM (inactive) |  | 32.4 µM (inactive) | 22.2 µM (inactive) | 36 µM (inactive) | 25.1 µM (inactive) | 16.6 µM (inactive) | 39 µM (inactive) | 41.5 µM (inactive) | 14.9 µM (inactive) | 14 µM (inactive) | 31.6 µM (inactive) | 33.7 µM (inactive) | 77.1 µM (inactive) | 28.5 µM (inactive) |  |
